According to patent US20250109135A1, “NOVEL ISOINDOLINONE DERIVATIVE COMPOUNDS AS CASPASE INHIBITORS” (INNOVO THERAPEUTICS INC., priority 2022, published 2025):
Like-named read-outs stand apart in the source and are kept apart here.

Columns and labels:
[1] = target: T1, recombinant human Caspase-1 (Homo sapiens, UniProt P29466); experiment: Caspase-1 inhibitory activity, fluorescent substrate Ac-YVAD-AFC; assay type: biochemical
T1 construct: purchased Enzo life science
T1 sequence (P29466 120-297 limits assumed): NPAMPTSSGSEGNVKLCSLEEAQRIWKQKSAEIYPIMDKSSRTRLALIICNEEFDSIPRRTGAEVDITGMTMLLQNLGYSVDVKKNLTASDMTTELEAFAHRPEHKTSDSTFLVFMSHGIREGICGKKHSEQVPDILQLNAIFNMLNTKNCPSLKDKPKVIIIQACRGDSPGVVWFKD
T1 sequence (P29466 317-404 limits assumed): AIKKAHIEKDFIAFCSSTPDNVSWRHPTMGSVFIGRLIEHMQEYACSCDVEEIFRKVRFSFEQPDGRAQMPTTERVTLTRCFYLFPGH
Method: To determine the Caspase-1 inhibitory activity of the compounds of the present invention prepared in Example, Caspase-1 activity was measured using a substrate with a fluorescent dye attached to it. […] The compound was dissolved in DMSO and stored at −20° C. Enzymatic reactions were carried out in a buffer comprising 50 mM HEPES (pH 8.0), 50 mM KCl, 200 mM NaCl, 10 mM DTT, 0.1% CHAPS (w/v). Enzyme inactivation was measured in the presence of different concentrations of the compound using the fluorescent substrate N-Acetyl-Tyr-Val-Ala-Asp-7-amido-4-trifluoromethylcoumarin (Ac-YVAD-AFC) (Sigma) at a concentration of 50 μM and 1 unit of recombinant human Caspase-1 (Enzo life science). A CLARIOstar Plus spectrometer (BMG Labtech) was used to measure the reaction rate as a function of time in the 400/505 nm (Ex/Em) wavelength band. […] If kobs/[I] is 20 or more, it is denoted as A, if it is 10 or more but less than 20, it is denoted as B, if it is 1 or more but less than 10, it is denoted as C, and if it is less than 1, it is denoted as D.
In the above equation, At means the enzyme reaction rate at time t (min), and Amax means the maximum reaction rate.

[2] = tested on: Secreted IL-1β in THP-1 cells; experiment: Interleukin-1β inhibitory activity in human monocytic cells THP-1 (ELISA); assay type: cell-based; details: compound 100 nM, PMA-differentiated THP-1, LPS 10 μg/ml then 5 mM ATP, 24 h
Method: Caspase-1 is known as […] (ICE). Activated Caspase-1 is involved in the cleavage of pro-form IL-1β to produce the mature form, which is then secreted to induce inflammation. Therefore, the compounds identified in Experimental example 1 were tested to determine if their Caspase-1 inhibitory activity affected the production of […].
THP-1 (ATCC) cells were cultured in RPMI 1640 (Hyclone) growth medium comprising 10% Fetal bovine serum (FBS, Gibco) and antibiotics (100 U/ml Penicillin, 0.1 mg/ml Streptomycin, Cytiva) under 37° C., 5% CO2 conditions. Cultured THP-1 cells were seeded in growth medium to a concentration of 3×10^5 cells/well in 24-well plates (Celvest) and then treated with 1 μM Phorbol 12-myristate 13-acetate (PMA) (Sigma) for 24 hours to induce differentiation. Differentiated THP-1 were pre treated with 10 μg/ml Lipopolysaccharide (LPS, from E. coli 0111:B4 (InvivoGen)) in serum free RPMI 1640 medium for 24 hours to induce an inflammatory response. After removal of LPS, the compounds were pretreated for 1 h at a concentration of 100 nM using the same medium, followed by the addition of 5 mM ATP (InvivoGen) and incubation for 24 h in an incubator. The treated medium was collected and centrifuged, and IL-1β was quantified using an Enzyme linked immunoassay kit (ELISA kit, R&D system), and absorbance was measured at 450 nm using a CLARIOstar Plus spectrometer. Inhibitory activity was denoted as a if it was 50% or more, b if it was 30% or more but less than 50%, c if it was 10% or more but less than 30%, and d if it was less than 10%.

[3] = tested on: Jurkat cells; experiment: Apoptosis inhibition activity in human T-lymphocyte cells Jurkat (anti-FAS antibody, intracellular ATP); assay type: cell-based; details: compound 50 nM, 1 μg/ml anti-FAS antibody 24 h, ATP luminescence
Method: To evaluate the effect of the compound of the present invention on apoptosis, Jurkat (ATCC) cells were treated with anti-FAS antibody CH-11 (Merck) to induce apoptosis via the Fas (CD95) receptor, which was assessed by the amount of intracellular ATP.
Jurkat cells were cultured in RPMI 1640 growth medium comprising 10% FBS and antibiotics (100 U/ml Penicillin, 0.1 mg/ml Streptomycin) under 37° C., 5% CO2 conditions. Cultured cells were seeded in growth medium to a concentration of 8×10^4 cells/well in 96-well plates (SPL), pretreated with compound at a concentration of 50 nM for 1 hour, and then treated with 1 μg/ml anti-FAS antibody for 24 hours in an incubator. After 24 h, an ATP lite Luminescence assay kit (PerkinElmer) was used to measure ATP and luminescence was measured at 580 nm using a CLARIOstar Plus spectrometer. If the inhibitory activity is 30% or more, it is denoted as a′, if it is 20% or more but less than 30%, it is denoted as b′, if it is 10% or more but less than 20%, it is denoted as c′, and if it is less than 10%, it is denoted as d′.

[4] = pH 8, read-out: kobs/[I] Caspase-1
[5] = pH 8, 1 unit recombinant human Caspase-1, 50 μM Ac-YVAD-AFC, read-out: kobs/[I] Caspase-1

Row | Structure (SMILES) | kinact/KI [1, 4] | inhibition at 0.1 µM [2] | inhibition at 0.05 µM [3] | kinact/KI [1, 5]
1 | O=C(O)CC(NC(=O)CN1Cc2ccc(-c3ccc4[nH]c(=O)[nH]c4c3)cc2C1=O)C(=O)CF (stereo not drawn) [Compound 38, 5-fluoro-4-oxo-3-(2-(1-oxo-6-(2-oxo-2,3-dihydro-1H-benzo[d]imidazol-5-yl)isoindolin-2-yl)acetamido)pentanoic acid] | < 0.0167 M⁻¹ s⁻¹ | < 10% | < 10% | –
2 | CCC(C(=O)NC(CC(=O)O)C(=O)CF)N1Cc2ccc(-c3coc4ccccc34)cc2C1=O (stereo not drawn) [Compound 22, 3-(2-(6-(benzofuran-3-yl)-1-oxoisoindolin-2-yl)butanamido)-5-fluoro-4-oxopentanoic acid] | – | 30 to 50% | 10 to 20% | > 0.333 M⁻¹ s⁻¹
3 | CC(C)[C@@H](C(=O)NC(CC(=O)O)C(=O)CF)N1Cc2ccc(-c3ccc4c(c3)OCCO4)cc2C1=O (stereo partly drawn) [Compound 42, 3-((S)-2-(6-(2,3-dihydrobenzo[b][1,4]dioxin-6-yl)-1-oxoisoindolin-2-yl)-3-methylbutanamido)-5-fluoro-4-oxopentanoic acid] | – | 30 to 50% | ≥ 30% | 0.0167 to 0.167 M⁻¹ s⁻¹
4 | CC[C@@H](C(=O)N[C@@H](CC(=O)O)C(=O)COc1c(F)c(F)cc(F)c1F)N1Cc2ccc(-c3ccc4[nH]c(=O)[nH]c4c3)cc2C1=O [Compound 52, (S)-4-oxo-3-((S)-2-(1-oxo-6-(2-oxo-2,3-dihydro-1H-benzo[d]imidazol-5-yl)isoindolin-2-yl)butanamido)-5-(2,3,5,6-tetrafluorophenoxy)pentanoic acid] | > 0.333 M⁻¹ s⁻¹ | 10 to 30% | 10 to 20% | –
5 | CCC(C(=O)NC(CC(=O)O)C(=O)CF)N1Cc2ccc(N3CCN(S(C)(=O)=O)CC3)cc2C1=O (stereo not drawn) [Compound 6, 5-fluoro-3-(2-(6-(4-(methylsulfonyl)piperazin-1-yl)-1-oxoisoindolin-2-yl)butanamido)-4-oxopentanoic acid] | – | 10 to 30% | 10 to 20% | < 0.0167 M⁻¹ s⁻¹
6 | CCC(C(=O)NC(CC(=O)O)C(=O)CF)N1Cc2ccc(-c3ccc4occc4c3)cc2C1=O (stereo not drawn) [Compound 26, 3-(2-(6-(benzofuran-5-yl)-1-oxoisoindolin-2-yl)butanamido)-5-fluoro-4-oxopentanoic acid] | – | 30 to 50% | ≥ 30% | 0.0167 to 0.167 M⁻¹ s⁻¹
7 | O=C(O)CC(NC(=O)CN1Cc2ccc(-c3coc4ccccc34)cc2C1=O)C(=O)CF (stereo not drawn) [Compound 39, 3-(2-(6-(benzofuran-3-yl)-1-oxoisoindolin-2-yl)acetamido)-5-fluoro-4-oxopentanoic acid] | 0.0167 to 0.167 M⁻¹ s⁻¹ | < 10% | < 10% | –
8 | CCC(C(=O)NC(CC(=O)O)C(=O)CF)N1Cc2ccc(-c3ccccc3)cc2C1=O (stereo not drawn) [Compound 1, 5-fluoro-4-oxo-3-(2-(1-oxo-6-phenylisoindolin-2-yl)butanamido)pentanoic acid] | – | 10 to 30% | 20 to 30% | 0.0167 to 0.167 M⁻¹ s⁻¹
9 | CCC(C(=O)NC(CC(=O)O)C(=O)CF)N1Cc2ccc(-c3csc4ccccc34)cc2C1=O (stereo not drawn) [Compound 16, 3-(2-(6-(benzo[b]thiophen-3-yl)-1-oxoisoindolin-2-yl)butanamido)-5-fluoro-4-oxopentanoic acid] | > 0.333 M⁻¹ s⁻¹ | ≥ 50% | 20 to 30% | –
10 | CC(C)[C@@H](C(=O)NC(CC(=O)O)C(=O)CF)N1Cc2ccc(-c3ccc4[nH]c(=O)[nH]c4c3)cc2C1=O (stereo partly drawn) [Compound 45, 5-fluoro-3-((S)-3-methyl-2-(1-oxo-6-(2-oxo-2,3-dihydro-1H-benzo[d]imidazol-5-yl)isoindolin-2-yl)butanamido)-4-oxopentanoic acid] | 0.0167 to 0.167 M⁻¹ s⁻¹ | 30 to 50% | 10 to 20% | –
11 | CCC(C(=O)NC(CC(=O)O)C(=O)CF)N1Cc2ccc(-c3cn[nH]c3)cc2C1=O (stereo not drawn) [Compound 5, 5-fluoro-4-oxo-3-(2-(1-oxo-6-(1H-pyrazol-4-yl)isoindolin-2-yl)butanamido)pentanoic acid] | – | 30 to 50% | 10 to 20% | 0.0167 to 0.167 M⁻¹ s⁻¹
12 | CC(C)[C@@H](C(=O)NC(CC(=O)O)C(=O)CF)N1Cc2ccc(-c3coc4ccccc34)cc2C1=O (stereo partly drawn) [Compound 44, 3-((S)-2-(6-(benzofuran-3-yl)-1-oxoisoindolin-2-yl)-3-methylbutanamido)-5-fluoro-4-oxopentanoic acid] | – | ≥ 50% | 20 to 30% | 0.167 to 0.333 M⁻¹ s⁻¹
13 | CCC(C(=O)NC(CC(=O)O)C(=O)CF)N1Cc2ccc(-c3ccc(OC)nc3)cc2C1=O (stereo not drawn) [Compound 13, 5-fluoro-3-(2-(6-(6-methoxypyridin-3-yl)-1-oxoisoindolin-2-yl)butanamido)-4-oxopentanoic acid] | – | ≥ 50% | 20 to 30% | 0.0167 to 0.167 M⁻¹ s⁻¹
14 | CCC(C(=O)NC(CC(=O)O)C(=O)CF)N1Cc2ccc(Br)cc2C1=O (stereo not drawn) [Compound 9, 3-(2-(6-bromo-1-oxoisoindolin-2-yl)butanamido)-5-fluoro-4-oxopentanoic acid] | – | 30 to 50% | ≥ 30% | 0.0167 to 0.167 M⁻¹ s⁻¹
15 | CCC(C(=O)NC(CC(=O)O)C(=O)CF)N1Cc2ccc(-c3cccc4ccccc34)cc2C1=O (stereo not drawn) [Compound 2, 5-fluoro-3-(2-(6-(naphthalen-1-yl)-1-oxoisoindolin-2-yl)butanamido)-4-oxopentanoic acid] | – | 30 to 50% | 10 to 20% | 0.0167 to 0.167 M⁻¹ s⁻¹
16 | CCC(C(=O)NC(CC(=O)O)C(=O)CF)N1Cc2ccc(-c3ccc(C(C)=O)cc3)cc2C1=O (stereo not drawn) [Compound 18, 3-(2-(6-(4-acetylphenyl)-1-oxoisoindolin-2-yl)butanamido)-5-fluoro-4-oxopentanoic acid] | – | ≥ 50% | 10 to 20% | 0.0167 to 0.167 M⁻¹ s⁻¹
17 | CC[C@@H](C(=O)NC(CC(=O)O)C(=O)CF)N1Cc2ccc(-c3ccc4c(c3)OCCO4)cc2C1=O (stereo partly drawn) [Compound 55, 3-((S)-2-(6-(2,3-dihydrobenzo[b][1,4]dioxin-6-yl)-1-oxoisoindolin-2-yl)butanamido)-5-fluoro-4-oxopentanoic acid] | – | 30 to 50% | ≥ 30% | 0.0167 to 0.167 M⁻¹ s⁻¹
18 | CC[C@@H](C(=O)N[C@H](CC(=O)O)C(=O)COc1c(F)c(F)cc(F)c1F)N1Cc2ccc(-c3ccc4c(c3)OCCO4)cc2C1=O [Compound 54, (R)-3-((S)-2-(6-(2,3-dihydrobenzo[b][1,4]dioxin-6-yl)-1-oxoisoindolin-2-yl)butanamido)-4-oxo-5-(2,3,5,6-tetrafluorophenoxy)pentanoic acid] | – | 30 to 50% | < 10% | 0.0167 to 0.167 M⁻¹ s⁻¹
